Earlier results in patent publication US20250099481A1, “BCL-2 INHIBITORS” (Newave Pharmaceutical Inc., priority 2022, published 2025).
Values belong to the compound of their own block, whether it stands above or below them.

Key:
[1] = in vivo
RS4;11 xenografts = details: single dose of 100 mg/kg
[2] = tested on: DoHH2, Granta-519 xenografts; details: single agent or in combination with Bendamustine and other agents
CLL = details: read-out: average EC50, apoptosis
[3] = tested on: CLL who have 17p deletion; details: Human Phase I and II data, CLL with 17p deletion
Bcl-w = target: T1, Bcl-w (Homo sapiens, UniProt Q92843)
T1 sequence (Q92843 1-193): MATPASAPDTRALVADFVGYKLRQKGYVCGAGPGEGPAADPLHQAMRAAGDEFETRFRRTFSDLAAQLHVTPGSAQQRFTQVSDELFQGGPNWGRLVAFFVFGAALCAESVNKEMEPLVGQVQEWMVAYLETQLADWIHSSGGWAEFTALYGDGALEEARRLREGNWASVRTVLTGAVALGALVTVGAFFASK

[4] = tested on: xenograft models of small-cell lung cancer and acute lymphoblastic leukemia; details: oral administration alone
H345 xenograft = details: 100 mg/kg/day, H345 xenograft model

oral bioavailability [1]: not orally bioavailable | aqueous solubility: low aqueous solubility
Compound: CN(C)CC[C@H](CSc1ccccc1)Nc1ccc(S(=O)(=O)NC(=O)c2ccc(N3CCN(Cc4ccccc4-c4ccc(Cl)cc4)CC3)cc2)cc1[N+](=O)[O-] [ABT-737]
efficacy in animal models (established tumors): improves survival, causes regression of established tumors, and produces cures in a high percentage of the mice

Compound: ABT-199
EC50 (RS4;11 cells): 8 nM | apoptosis induction (RS4;11 cells; cytochrome c release, caspase activation, accumulation of sub-G0/G1 DNA): induces a rapid apoptosis | maximal tumor growth inhibition (RS4;11 xenografts): 95% | tumor growth delay (RS4;11 xenografts): 152% | xenograft growth [2]: inhibits xenograft growth | EC50 (CLL): 3 nM | clinical efficacy [3]: highly efficacious

Ki (Bcl-w): 1 nM | IC50 (SCLC H146 cell line): 110 nM
Compound: CC1(C)CCC(c2ccc(Cl)cc2)=C(CN2CCN(c3ccc(C(=O)NS(=O)(=O)c4ccc(N[C@H](CCN5CCOCC5)CSc5ccccc5)c(S(=O)(=O)C(F)(F)F)c4)cc3)CC2)C1 [ABT-263]
tumor response [4]: complete tumor regressions | TGI (H345 xenograft): 80% | treated tumors indicating at least a 50% reduction in tumor volume (H345 xenograft): 20% | number of circulating platelets (circulating platelets; clinical trial, inhibition of BCL-XL): rapid, concentration-dependent decrease in the number of circulating platelets | dose-limiting toxicity (circulating platelets; single-agent treatment in patients): thrombocytopenia is the dose-limiting toxicity
